Reference: PMC8036666, “Biological and Physico-Chemical Characteristics of Arginine-Rich Peptide Gemini Surfactants with Lysine and Cystine Spacers” (International Journal of Molecular Sciences, 2021)
≈ marks a conversion by molar mass, not a printed value. Where a SMILES comes first, the peptide text is derived from it. Bridges are numbered along the chain shown (N, C = ends). Roman numbers before positions name the chains, in order. Side-chain parts run from the residue outwards. [ ]: non-standard residue; d: D form. The star is where a group is joined. Myristoyl = CCCCCCCCCCCCCC(=O)*; Lauroyl = CCCCCCCCCCCC(=O)*; Decanoyl = CCCCCCCCCC(=O)*; Nle = CCCC[C@H](N)C(=O)O; Octanoyl = CCCCCCCC(=O)*

Legend:
C. glabrata ATCC 15126 = conditions: ATCC 15126, 24 h
Method: (§1) The Acinetobacter baumannii ATCC BAA-1605, Enterococcus faecium ATCC 700221, Escherichia coli ML-35 ATCC 43827, Klebsiella aerogenes ATCC 13048, Klebsiella pneumoniae ATCC 700603, Pseudomonas aeruginosa ATCC 9027, Staphylococcus aureus ATCC 25923, Staphylococcus aureus ATCC 33591, Candida albicans ATCC 10231, Candida glabrata ATCC 15126, strains were acquired from the American Type Culture Collection (ATCC). All the strains were stored at −80 °C in Roti-Store cryo vials and before the tests were transferred into fresh Mueller–Hinton broth (MHB, Biocorp, Warsaw, Poland) for bacteria or RPMI-1640 (Sigma-Aldrich, Steinheim, Germany) for fungi and incubated for 24 h at 37 °C. Then, the cultures were seeded on the Mueller–Hinton agar (BioMaxima, Lublin, Poland) or Sabouraud dextrose agar (SDA, BioMaxima, Lublin, Poland) plates, respectively, and incubated as just mentioned. These agar cultures were used for further microbiological assays. Cell densities for all assays were adjusted spectrophotometrically (Multiskan GO Microplate Spectrophotometer, Thermo Fisher Scientific, Vantaa, Finland) at 600 and 530 nm for bacteria and fungi, respectively.
(§2) The MICs were determined by the broth microdilution method according to the Clinical and Laboratory Standard Institute guidelines. For this purpose, initial inoculums of bacteria (5 × 10^5 CFU/mL) in MHB and yeasts (2 × 10^3 CFU/mL) in RPMI-1640 with 2% D-glucose were exposed to the ranging concentration of lipopeptides (0.5–256 μg/mL) and incubated at 37 °C for 18 h and 24 h, respectively. The experiments were conducted on 96-well microtiter polystyrene plates (Kartell, Noviglio, Italy). The growth was assessed visually after incubation, and the MIC was assumed as the lowest peptide concentration at which a noticeable growth of microorganisms was inhibited. All experiments were conducted in triplicate.

C. albicans ATCC 10231 = conditions: ATCC 10231, 24 h
Method: as §1, §2

[1] = system: Staphylococcus aureus ATCC 33591; conditions: ATCC 33591, 24 h
Method: as §1, with “[…],” for “Poland) for bacteria or RPMI-1640 (Sigma-Aldrich,”, “Cell densities for all assays were adjusted spectrophotometrically (Multiskan GO Microplate Spectrophotometer, Thermo Fisher Scientific, Vantaa, Finland) at 600 and 530 nm for bacteria and fungi, respectively.” left out
The MICs were determined by the broth microdilution method according to the Clinical and Laboratory Standard Institute guidelines. […] The experiments were conducted on 96-well microtiter polystyrene plates (Kartell, Noviglio, Italy). The growth was assessed visually after incubation, and the MIC was assumed as the lowest peptide concentration at which a noticeable growth of microorganisms was inhibited. All experiments were conducted in triplicate.

[2] = system: Candida glabrata ATCC 15126; type: cell-based; conditions: ATCC 15126, 24 h
Method: (§3) Biofilm is associated with life-threating infections due to its outstanding resistance to antibiotics. In this study, the antibiofilm characteristics of USCLs and gemini surfactants were evaluated.
(§4) The MBECs were determined as described previously using 96-well polystyrene flat-bottom plates. For this purpose, 24 h cultures of microorganisms were diluted to obtain a final density of 5.0 × 10^5 CFU/mL and 2.0 × 10^5 CFU/mL of bacteria and fungi, respectively. Microorganisms were diluted in MHB or RPMI-1640 with 2% D-glucose (bacteria and fungi, respectively). Briefly, 100 µL of cell suspension was added into the test plates. After 24 h of incubation at 37 °C, the wells were rinsed three times with a PBS (pH 7.4) to remove non-adherent cells. Subsequently, 100 μL of the test compounds in a concentration range (1–512 μg/mL) were added to each well. After 24 h of incubation at 37 °C, 20 μL of a cell viability reagent was added (resazurin, 4 g/L; Sigma Aldrich, St. Louis, MO, USA). The MBEC was read after 1 h. The determined values were recorded as the lowest concentration at which the reduction of resazurin (from blue to pink) was lower or equal to 10 ± 0.5% as compared to the positive (100%) and negative (0%) controls. The reduction was monitored by measuring absorbance at 570 nm (reduced) and 600 nm (oxidized) using a microplate spectrophotometer (Multiskan GO Microplate Spectrophotometer, Thermo Fisher Scientific, Vantaa, Finland). All experiments were conducted in triplicate.

[3] = system: Candida albicans ATCC 10231; type: cell-based; conditions: ATCC 10231, 24 h
Method: as §3, §4

[4] = system: Staphylococcus aureus ATCC 33591; type: cell-based; conditions: ATCC 33591, 24 h
Method: as §3, §4

[5] = system: Klebsiella aerogenes ATCC 13048; type: cell-based; conditions: ATCC 13048, 24 h
Method: as §3, §4

[6] = system: Staphylococcus aureus ATCC 25923; type: cell-based; conditions: ATCC 25923, 24 h
Method: as §3, §4

[7] = system: Acinetobacter baumannii ATCC BAA 1605; type: cell-based; conditions: ATCC BAA 1605, 24 h
Method: as §3, §4

[8] = system: Enterococcus faecium ATCC 700221; type: cell-based; conditions: ATCC 700221, 24 h
Method: as §3, §4

[9] = system: Pseudomonas aeruginosa ATCC 9027; type: cell-based; conditions: ATCC 9027, 24 h
Method: as §3, §4

[10] = system: Klebsiella pneumoniae ATCC 700603; type: cell-based; conditions: ATCC 700603, 24 h
Method: as §3, §4

| MIC C. glabrata ATCC 15126 (C. glabrata ATCC 15126) [µg/mL] | MIC C. albicans ATCC 10231 (C. albicans ATCC 10231) [µg/mL] | MIC Staphylococcus aureus ATCC 33591 [1] [µg/mL] | SMILES | MBEC Candida glabrata ATCC 15126 [2] [µg/mL] | MBEC Candida albicans ATCC 10231 [3] [µg/mL] | MBEC Staphylococcus aureus ATCC 33591 [4] [µg/mL] | MBEC Klebsiella aerogenes ATCC 13048 [5] [µg/mL] | MBEC Staphylococcus aureus ATCC 25923 [6] [µg/mL] | MBEC Acinetobacter baumannii ATCC BAA 1605 [7] [µg/mL] | MBEC Enterococcus faecium ATCC 700221 [8] [µg/mL] | MBEC Pseudomonas aeruginosa ATCC 9027 [9] [µg/mL] | MBEC Klebsiella pneumoniae ATCC 700603 [10] [µg/mL] |
| --- | --- | --- | --- | --- | --- | --- | --- | --- | --- | --- | --- | --- |
| 2 (≈ 1.68 µM) | 4 (≈ 3.36 µM) | 64 (≈ 53.8 µM) | CCCCCCCCCCCCCC(=O)N[C@@H](CCCNC(=N)N)C(=O)N[C@@H](CCCNC(=N)N)C(=O)NCCCC[C@H](NC(=O)[C@H](CCCNC(=N)N)NC(=O)[C@H](CCCNC(=N)N)NC(=O)CCCCCCCCCCCCC)C(N)=O [Compound B4] (Myristoyl-Arg-Arg-Lys([Arg-Arg-Myristoyl])-NH2) | 64 | 64 | 128 | 256 | 256 | 512 | 64 | >512 | 512 |
| 16 (≈ 12.2 µM) | 16 (≈ 12.2 µM) | 4 (≈ 3.04 µM) | CCCCCCCC(=O)N[C@@H](Cc1ccccc1)C(=O)N[C@@H](CCCNC(=N)N)C(=O)N[C@@H](CCCNC(=N)N)C(=O)NCCCC[C@H](NC(=O)[C@H](CCCNC(=N)N)NC(=O)[C@H](CCCNC(=N)N)NC(=O)[C@H](Cc1ccccc1)NC(=O)CCCCCCC)C(N)=O [Compound B5] (Octanoyl-FRRK([Arg-Arg-Phe-Octanoyl])-NH2) | 256 | 32 | 4 | 256 | 16 | 256 | 8 | 512 | 256 |
| 16 (≈ 12.8 µM) | 16 (≈ 12.8 µM) | 4 (≈ 3.2 µM) | CCCCCCCC(=O)N[C@@H](CCCC)C(=O)N[C@@H](CCCNC(=N)N)C(=O)N[C@@H](CCCNC(=N)N)C(=O)NCCCC[C@H](NC(=O)[C@H](CCCNC(=N)N)NC(=O)[C@H](CCCNC(=N)N)NC(=O)[C@H](CCCC)NC(=O)CCCCCCC)C(N)=O [Compound B6] (Octanoyl-[Nle]RRK([Arg-Arg-Nle-Octanoyl])-NH2) | 512 | 256 | 4 | 256 | 16 | 256 | 8 | 256 | 256 |
| 64 (≈ 57.4 µM) | 128 (≈ 115 µM) | 16 (≈ 14.3 µM) | CCCCCCCC(=O)N[C@@H](CCCNC(=N)N)C(=O)N[C@@H](CCCNC(=N)N)C(=O)N[C@@H](CSSC[C@H](NC(=O)[C@H](CCCNC(=N)N)NC(=O)[C@H](CCCNC(=N)N)NC(=O)CCCCCCC)C(N)=O)C(N)=O [Compound C1] (I: Octanoyl-Arg-Arg-Cys-NH2 / II: Octanoyl-Arg-Arg-Cys-NH2; disulfide I:3-II:3) | >512 | 256 | 32 | >512 | 64 | 512 | 64 | 512 | >512 |
| 2 (≈ 1.63 µM) | 1 (≈ 0.815 µM) | 4 (≈ 3.26 µM) | CCCCCCCCCCCC(=O)N[C@@H](CCCNC(=N)N)C(=O)N[C@@H](CCCNC(=N)N)C(=O)N[C@@H](CSSC[C@H](NC(=O)[C@H](CCCNC(=N)N)NC(=O)[C@H](CCCNC(=N)N)NC(=O)CCCCCCCCCCC)C(N)=O)C(N)=O [Compound C3] (I: Lauroyl-Arg-Arg-Cys-NH2 / II: Lauroyl-Arg-Arg-Cys-NH2; disulfide I:3-II:3) | 128 | 16 | 32 | 256 | 128 | 512 | 16 | 512 | 256 |

| SMILES | MIC C. glabrata ATCC 15126 (C. glabrata ATCC 15126) [µg/mL] | MIC C. albicans ATCC 10231 (C. albicans ATCC 10231) [µg/mL] | MIC Staphylococcus aureus ATCC 33591 [1] [µg/mL] | MBEC Candida glabrata ATCC 15126 [2] [µg/mL] | MBEC Candida albicans ATCC 10231 [3] [µg/mL] | MBEC Staphylococcus aureus ATCC 33591 [4] [µg/mL] | MBEC Klebsiella aerogenes ATCC 13048 [5] [µg/mL] | MBEC Staphylococcus aureus ATCC 25923 [6] [µg/mL] | MBEC Acinetobacter baumannii ATCC BAA 1605 [7] [µg/mL] | MBEC Enterococcus faecium ATCC 700221 [8] [µg/mL] | MBEC Pseudomonas aeruginosa ATCC 9027 [9] [µg/mL] | MBEC Klebsiella pneumoniae ATCC 700603 [10] [µg/mL] |
| --- | --- | --- | --- | --- | --- | --- | --- | --- | --- | --- | --- | --- |
| CCCCCCC(CCCC)C(=O)N[C@@H](CCCNC(=N)N)C(=O)N[C@@H](CCCNC(=N)N)C(=O)NCCCC[C@H](NC(=O)[C@H](CCCNC(=N)N)NC(=O)[C@H](CCCNC(=N)N)NC(=O)C(CCCC)CCCCCC)C(N)=O (stereo partly drawn) [Compound B7] | 16 (≈ 14.1 µM) | 8 (≈ 7.05 µM) | 0.5 (≈ 0.441 µM) | 256 | 64 | 4 | 64 | 8 | 64 | 8 | 256 | 128 |
| CCCCCCCCCC(=O)N[C@@H](CCCNC(=N)N)C(=O)N[C@@H](CCCNC(=N)N)C(=O)N[C@@H](CSSC[C@H](NC(=O)[C@H](CCCNC(=N)N)NC(=O)[C@H](CCCNC(=N)N)NC(=O)CCCCCCCCC)C(N)=O)C(N)=O [Compound C2] (I: Decanoyl-Arg-Arg-Cys-NH2 / II: Decanoyl-Arg-Arg-Cys-NH2; disulfide I:3-II:3) | 8 (≈ 6.83 µM) | 4 (≈ 3.41 µM) | 1 (≈ 0.854 µM) | 512 | 32 | 8 | 256 | 32 | 256 | 4 | 512 | 512 |
